From patent publication US20260250318A1, “COMPOSITIONS AND METHODS FOR CROSSING THE BLOOD BRAIN BARRIER” (VOYAGER THERAPEUTICS, INC., priority 2022, published 2026)

Test system: brain
Test: Matured TTM-001 and TTM-002 variants, NGS enrichment in mouse brain
Assay type: in vivo, mice
Settings: NGS fold-enrichment, mouse brain, relative to AAV9 control

Row | Sequence | Fold Enrichment relative to AAV9, Brain (Mouse) [fold]
1 | KAINGPDSPHKSGQKQQT | 10.395
2 | KTSNGHDSPHKSGQNQPA | 8.501
3 | KTIDGHDSPHKSGQNQHA | 10.781
4 | KSLNGSGSPHTKAQNQQT | 45.140
5 | KIINGRDSPHKSGQDQQT | 16.132

Same assay, conditions: mouse brain; relative to AAV9 control

Row | Sequence | Fold Enrichment relative to AAV9, Brain (Mouse) [fold]
6 | KTELGSGSPHSKAQNQQT | 87.314
7 | KTINGSGSPHSKTQNHQN | 64.846
8 | KTNNGGGSPHSKAQNLQT | 80.506

Test system: brains, heart, liver, muscle, and DRG of the NHPs
Test: Maturation of TTM-001 and TTM-002 capsids, NGS enrichment in NHP tissues
Assay type: in vivo
Settings: NGS fold-enrichment of RNA, NHP brain, relative to AAV9 control
Summary of the method: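 Variants carry mutations within and flanking the loop IV peptide insert: positions 450–466 were triplet-randomized, while positions 449–466 received low-frequency point mutations. The combined pool went into two NHPs, and each peptide was scored by NGS enrichment ratio against AAV9.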

Row | Sequence | Fold Enrichment relative to AAV9, Brain (NHP) [fold]
9 | KAINGPDSPHKSGQKQQT | 78.213
10 | KTSNGHDSPHKSGQNQPA | 75.834
11 | KTIDGHDSPHKSGQNQHA | 91.058
12 | KSLNGSGSPHTKAQNQQT | 81.515
13 | KIINGRDSPHKSGQDQQT | 78.773

Same assay, conditions: NGS fold-enrichment of matured AAV capsid variants; NHP brain, RNA; relative to AAV9 control

Row | Sequence | Fold Enrichment relative to AAV9, Brain (NHP) [fold]
14 | KTELGSGSPHSKAQNQQT | 52.232
15 | KTINGSGSPHSKTQNHQN | 55.551
16 | KTNNGGGSPHSKAQNLQT | 54.963

Same assay, conditions: NGS fold-enrichment, NHP DRG, relative to AAV9 control

Row | Sequence | Fold Enrichment relative to AAV9, DRG (NHP) [fold]
17 | KAINGPDSPHKSGQKQQT | 0.464
18 | KTSNGHDSPHKSGQNQPA | 0.000
19 | KTIDGHDSPHKSGQNQHA | 0.000
20 | KSLNGSGSPHTKAQNQQT | 0.197
21 | KIINGRDSPHKSGQDQQT | 0.000

Same assay, conditions: NGS fold-enrichment, NHP heart, relative to AAV9 control

Row | Sequence | Fold Enrichment relative to AAV9, Heart (NHP) [fold]
22 | KAINGPDSPHKSGQKQQT | 0.047
23 | KTSNGHDSPHKSGQNQPA | 0.056
24 | KTIDGHDSPHKSGQNQHA | 0.082
25 | KSLNGSGSPHTKAQNQQT | 0.333
26 | KIINGRDSPHKSGQDQQT | 0.254

Same assay, conditions: NGS fold-enrichment, NHP liver DNA, relative to AAV9 control

Row | Sequence | Fold Enrichment relative to AAV9, Liver DNA (NHP) [fold]
27 | KAINGPDSPHKSGQKQQT | 0.162
28 | KTSNGHDSPHKSGQNQPA | 0.000
29 | KTIDGHDSPHKSGQNQHA | 0.000
30 | KSLNGSGSPHTKAQNQQT | 0.085
31 | KIINGRDSPHKSGQDQQT | 0.156

Same assay, conditions: NGS fold-enrichment, NHP liver RNA, relative to AAV9 control

Row | Sequence | Fold Enrichment relative to AAV9, Liver RNA (NHP) [fold]
32 | KAINGPDSPHKSGQKQQT | 0.323
33 | KTSNGHDSPHKSGQNQPA | 0.000
34 | KTIDGHDSPHKSGQNQHA | 0.000
35 | KSLNGSGSPHTKAQNQQT | 0.000
36 | KIINGRDSPHKSGQDQQT | 0.000

Same assay, conditions: NGS fold-enrichment, NHP muscle, relative to AAV9 control

Row | Sequence | Fold Enrichment relative to AAV9, Muscle (NHP) [fold]
37 | KAINGPDSPHKSGQKQQT | 0.000
38 | KTSNGHDSPHKSGQNQPA | 0.000
39 | KTIDGHDSPHKSGQNQHA | 0.000
40 | KSLNGSGSPHTKAQNQQT | 0.000
41 | KIINGRDSPHKSGQDQQT | 0.000

Same assay, conditions: NHP DRG; relative to AAV9 control

Row | Sequence | Fold Enrichment relative to AAV9, DRG (NHP) [fold]
42 | KTELGSGSPHSKAQNQQT | 0.000
43 | KTINGSGSPHSKTQNHQN | 0.000
44 | KTNNGGGSPHSKAQNLQT | 0.000

Same assay, conditions: NHP heart; relative to AAV9 control

Row | Sequence | Fold Enrichment relative to AAV9, Heart (NHP) [fold]
45 | KTELGSGSPHSKAQNQQT | 0.007
46 | KTINGSGSPHSKTQNHQN | 0.048
47 | KTNNGGGSPHSKAQNLQT | 0.000

Same assay, conditions: NHP liver, DNA; relative to AAV9 control

Row | Sequence | Fold Enrichment relative to AAV9, Liver DNA (NHP) [fold]
48 | KTELGSGSPHSKAQNQQT | 0.088
49 | KTINGSGSPHSKTQNHQN | 0.099
50 | KTNNGGGSPHSKAQNLQT | 0.089

Same assay, conditions: NHP liver, RNA; relative to AAV9 control

Row | Sequence | Fold Enrichment relative to AAV9, Liver RNA (NHP) [fold]
51 | KTELGSGSPHSKAQNQQT | 0.532
52 | KTINGSGSPHSKTQNHQN | 0.000
53 | KTNNGGGSPHSKAQNLQT | 0.000

Same assay, conditions: NHP muscle; relative to AAV9 control

Row | Sequence | Fold Enrichment relative to AAV9, Muscle (NHP) [fold]
54 | KTELGSGSPHSKAQNQQT | 0.006
55 | KTINGSGSPHSKTQNHQN | 0.000
56 | KTNNGGGSPHSKAQNLQT | 0.000
